Results reported in US20190183910A1, “ENHANCING DNA REPAIR AND PREVENTING AGING AND ITS CONSEQUENCES IN REPRODUCTIVE AND OTHER CELLS” (NEW YORK MEDICAL COLLEGE, priority 2016, published 2019).

Experiments:
MRE11 = experiment: qRT-PCR DNA DSB repair gene expression in mouse sperm lysates, MRE11; assay type: cell-based
Method: Treatment was performed with genotoxic stress (1 mM H2O2), S1P (200 μM), and S1P with genotoxic stress and control in culture for one hour. Also, the use of an ATM inhibitor was utilized (10 μM) (KU-55593, Abcam) (Li et al., 2014). We assessed DNA damage, apoptosis, and chromatin integrity. We also studied the DNA DSB repair gene expression by qRT-PCR in sperm lysates.
Sperm pellets previously snap-frozen in PBS were thawed. RNA was extracted using the trizol method (Rio et al., 2010). The quality and quantity of the RNA were measured with NanoDrop 2000 from Thermo Scientific. RNA (2 μg) from each sample was taken for reverse transcription with dTVN and N9 primers and SuperScript III reverse transcriptase, all procured from Invitrogen. The resulting cDNA was used to perform real-time qPCR with SYBR Green on an Applied Biosystems 7900HT Real-Time PCR machine was used. To determine the relative expression of various DNA repair genes in mouse sperm, we used the ΔΔCt method, which makes use of the expression of housekeeping genes. GAPDH was used as housekeeping gene. Primers were procured from Integrated DNA technologies (IDT) (Table 3).

human sperm = experiment: Neutral comet assay on human sperm; assay type: cell-based

CCCCCCCCCCCCC/C=C/[C@@H](O)[C@@H](N)COP(=O)(O)O [S1P, sphingosine 1 phosphate]
no significant difference: MRE11 expression (qRT-PCR) (MRE11; S1P treatment with ATM inhibitor) | MRE11 expression (qRT-PCR) (MRE11; S1P treatment, no ATM inhibitor) | DNA damage, neutral comet (human sperm; S1P-treated human sperm with ATM inhibitor) | DNA damage, neutral comet (human sperm; S1P-treated human sperm without ATM inhibitor)
